# From patent publication US9133104B2 (Chroma Therapeutics Ltd., priority 2005, dated 2015)
# pIC50: −log10 of the molar value.
# Target: T1, histone deacetylase activity (HeLa nuclear extract)
# T1 construct: Histone deacetylase activity from crude nuclear extract derived from HeLa cells was used for screening
# Test: HDAC fluorescent activity assay (Biomol Fluor de Lys), HeLa nuclear extract
# Assay type: biochemical
# Settings: Fluor de Lys substrate, IC50 range
# Experimental: The ability of compounds to inhibit histone deacetylase activities was measured using the commercially available HDAC fluorescent activity assay from Biomol. In brief, the Fluor de Lys™ substrate, a lysine with an epsilon-amino acetylation, is incubated with the source of histone deacetylase activity (HeLa nuclear extract) in the presence or absence of inhibitor. Deacetylation of the substrate sensitises the substrate to Fluor de Lys™ developer, which generates a fluorophore. Thus, incubation of the substrate with a source of HDAC activity results in an increase in signal that is diminished in the presence of an HDAC inhibitor.
# Data are expressed as a percentage of the control, measured in the absence of inhibitor, with background signal being subtracted from all samples, as follows:— % activity=((S^i−B)/(S^o−B))×100 where S^i is the signal in the presence of substrate, enzyme and inhibitor, S^o is the signal in the presence of substrate, enzyme and the vehicle in which the inhibitor is dissolved, and B is the background signal measured in the absence of enzyme.
# IC50 values were determined by non-linear regression analysis, after fitting the results of eight data points to the equation for sigmoidal dose response with variable slope (% activity against log concentration of compound), using Graphpad Prism software.
# Histone deacetylase activity from crude nuclear extract derived from HeLa cells was used for screening. The preparation, purchased from 4C (Seneffe, Belgium), was prepared from HeLa cells harvested whilst in exponential growth phase. The nuclear extract is prepared according to Dignam JD1983 Nucl. Acid. Res. 11, 1475-1489, snap frozen in liquid nitrogen and stored at −80° C. The final buffer composition was 20 mM Hepes, 100 mM KCl, 0.2 mM EDTA, 0.5 mM DTT, 0.2 mM PMSF and 20% (v/v) glycerol.
row,Compound,pIC50
1,"O=C(CCCCCCC(=O)Nc1cccc(CN[C@@H](Cc2ccccc2)C(=O)O)c1)NO [Compound 27, (S)-2-[3-(7-Hydroxycarbamoyl-heptanoylamino)-benzylamino]-3-phenyl-propionic acid]",6.00 to 7.00
2,"O=C(CCCCCCC(=O)Nc1cccc(CN[C@@H](CCc2ccccc2)C(=O)O)c1)NO [Compound 30, (S)-2-[3-(7-Hydroxycarbamoyl-heptanoylamino)-benzylamino]-4-phenyl-butyric acid]",6.00 to 7.00
3,"CC(C)(C)OC[C@H](NCc1cccc(NC(=O)CCCCCCC(=O)NO)c1)C(=O)O [Compound 33, (S)-3-tert-Butoxy-2-[3-(7-hydroxycarbamoyl-heptanoylamino)-benzylamino]-propionic acid]",6.00 to 7.00
4,"CC(C)C[C@H](NCc1cccc(NC(=O)CCCCCCC(=O)NO)c1)C(=O)O [Compound 38, (S)-2-[3-(7-Hydroxycarbamoyl-heptanoylamino)-benzylamino]-4-methyl-pentanoic acid]",6.00 to 7.00
5,"CC(C)C[C@H](NC(=O)c1cccc(NC(=O)CCCCCCC(=O)NO)c1)C(=O)O [Compound 63, (S)-2-[3-(7-Hydroxycarbamoyl-heptanoylamino)-benzoylamino]-4-methyl-pentanoic acid]",6.00 to 7.00
6,"O=C(CCCCCCC(=O)Nc1cccc(OCCN[C@@H](Cc2ccccc2)C(=O)O)c1)NO [Compound 74, (S)-2-{2-[3-(7-Hydroxycarbamoyl-heptanoylamino)-phenoxy]-ethylamino}-3-phenyl-propionic acid]",6.00 to 7.00
7,"O=C(CCCCCCC(=O)Nc1cccc(CNC(=O)N[C@H](C(=O)O)c2ccccc2)c1)NO [Compound 80, (S)-{3-[3-(7-Hydroxycarbamoyl-heptanoylamino)-benzyl]-ureido}-phenyl-acetic acid]",6.00 to 7.00
8,"O=C(CCCCCCC(=O)Nc1cccc(CNC(=O)N[C@@H](Cc2ccccc2)C(=O)O)c1)NO [Compound 82, (S)-2-{3-[3-(7-Hydroxycarbamoyl-heptanoylamino)-benzyl]-ureido}-3-phenyl-propionic acid]",6.00 to 7.00
9,"O=C(CCCCCCC(=O)Nc1ccc(CN[C@@H](C(=O)O)c2ccccc2)cc1)NO [Compound 84, (R)-[4-(7-Hydroxycarbamoyl-heptanoylamino)-benzylamino]-phenyl-acetic acid]",6.00 to 7.00
10,"CC(C)(C)OC[C@H](NCc1ccc(NC(=O)CCCCCCC(=O)NO)cc1)C(=O)O [Compound 90, (S)-3-tert-Butoxy-2-[4-(7-hydroxycarbamoyl-heptanoylamino)-benzylamino]-propionic acid]",6.00 to 7.00
11,"O=C(CCCCCCC(=O)Nc1cccc(COC(=O)N[C@@H](Cc2ccccc2)C(=O)O)c1)NO [Compound 95, (S)-2-[3-(7-Hydroxycarbamoyl-heptanoylamino)-benzyloxycarbonylamino]3-phenyl-propionic acid]",6.00 to 7.00
12,"CC(C)C[C@H](NC(=O)[C@@H]1Cc2ccc(NC(=O)CCCCCCC(=O)NO)cc2CN1)C(=O)O [Compound 97, (S)-2-{[(S)-7-(7-Hydroxycarbamoyl-heptanoylamino)-1,2,3,4-tetrahydro-isoquinoline-3-carbonyl]-amino}-4-methyl-pentanoic acid]",6.00 to 7.00
13,"CC(C)C[C@H](NC(=O)c1ccc(NC(=O)CCCCCCC(=O)NO)cc1)C(=O)O [Compound 99, (S)-2-[4-(7-Hydroxycarbamoyl-heptanoylamino)-benzoylamino]-4-methyl-pentanoic acid]",< 6.00
14,"O=C(NO)c1cc2ccc(CNCc3ccc(CN4CCC[C@H]4C(=O)O)cc3)cc2s1 [Compound 112, (S)-1-(4-{[(2-Hydroxycarbamoyl-benzo[b]thiophen-6-ylmethyl)-amino]-methyl}-benzyl)-pyrrolidine-2-carboxylic acid]",6.00 to 7.00
15,"CC(C)(C)SC[C@H](NCc1ccc(CNCc2ccc3cc(C(=O)NO)sc3c2)cc1)C(=O)O [Compound 114, (R)-3-tert-Butylsulfanyl-2-(4-{[(2-hydroxycarbamoyl-benzo[b]thiophen-6-ylmethyl)-amino]-methyl}-benzylamino)-propionic acid]",6.00 to 7.00
16,"CC(C)C[C@H](NCc1ccc(CNCc2ccc3cc(C(=O)NO)sc3c2)cc1)C(=O)O [Compound 123, (S)-2-(4-{[(2-Hydroxycarbamoyl-benzo[b]thiophen-6-ylmethyl)-amino]-methyl}-benzylamino)-4-methyl-pentanoic acid]",> 7.00
17,"O=C(NO)c1cc2ccc(CNCc3ccc(CN[C@H](C(=O)O)c4ccccc4)cc3)cc2s1 [Compound 125, (S)-(4-{[(2-Hydroxycarbamoyl-benzo[b]thiophen-6-ylmethyl)-amino]-methyl}-benzylamino)-phenyl-acetic acid]",> 7.00
18,"O=C(NO)c1cc2ccc(CNCC3CCC(CN[C@H](C(=O)O)c4ccccc4)CC3)cc2s1 (stereo partly drawn) [Compound 127, (S)-[(4-{[(2-Hydroxycarbamoyl-benzo[b]thiophen-6-ylmethyl)-amino]-methyl}-cyclohexylmethyl)-amino]-phenyl-acetic acid]",6.00 to 7.00
19,"CC(C)C[C@H](NCC1CCC(CNCc2ccc3cc(C(=O)NO)sc3c2)CC1)C(=O)O (stereo partly drawn) [Compound 129, (S)-2-[(4-{[(2-Hydroxycarbamoyl-benzo[b]thiophen-6-ylmethyl)-amino]-methyl}-cyclohexylmethyl)-amino]-4-methyl-pentanoic acid]",6.00 to 7.00

# Further lines, results first:
row,pIC50,Compound
1,> 7.00,"O=C(CCCCCCC(=O)Nc1cccc(CCN[C@H](C(=O)O)c2ccccc2)c1)NO [Compound 72, (S)-{2-[3-(7-Hydroxycarbamoyl-heptanoylamino)-phenyl]-ethylamino}-phenyl-acetic acid]"
2,> 7.00,"O=C(CCCCCCC(=O)Nc1cccc(OCCCN[C@@H](Cc2ccccc2)C(=O)O)c1)NO [Compound 76, (S)-2-{3-[3-(7-Hydroxycarbamoyl-heptanoylamino)-phenoxy]-propylamino}-3-phenyl-propionic acid]"
3,> 7.00,"O=C(CCCCCCC(=O)Nc1ccc(CN[C@H](C(=O)O)C2CCCCC2)cc1)NO [Compound 87, (S)-Cyclohexyl-[4-(7-hydroxycarbamoyl-heptanoylamino)-benzylamino]-acetic acid]"
4,> 7.00,"O=C(CCCCCCC(=O)Nc1cccc(OCCCC(=O)N[C@H](C(=O)O)c2ccccc2)c1)NO [Compound 93, (S)-{4-[3-(7-Hydroxycarbamoyl-heptanoylamino)-phenoxy]-butyrylamino}-phenyl-acetic acid]"
5,> 7.00,"O=C(CCCCCCNC(=O)c1cc2cc(CCC(=O)N[C@@H](Cc3ccccc3)C(=O)O)ccc2[nH]1)NO [Compound 101, (S)-2-{3-[2-(6-Hydroxycarbamoyl-hexylcarbamoyl)-1H-indol-5-yl]-propionylamino}-3-phenyl-propionic acid]"
6,> 7.00,"O=C(Cc1ccc(OCCCC(=O)N[C@@H](Cc2ccccc2)C(=O)O)cc1)Nc1ccc2sc(C(=O)NO)cc2c1 [Compound 103, (S)-2-(4-{4-[(2-Hydroxycarbamoyl-benzo[b]thiophen-5-ylcarbamoyl)-methyl]-phenoxy}-butyrylamino)-3-phenyl-propionic acid]"
7,> 7.00,"O=C(NO)c1cc2ccc(CNCc3ccc(CN[C@@H](Cc4ccccc4)C(=O)O)cc3)cc2s1 [Compound 105, (S)-2-(4-{[(2-Hydroxycarbamoyl-benzo[b]thiophen-6-ylmethyl)-amino]-methyl}-benzylamino)-3-phenyl-propionic]"
8,> 7.00,"O=C(NO)c1cc2ccc(CNCc3ccc(CN[C@H](C(=O)O)C4CCCCC4)cc3)cc2s1 [Compound 117, (S)-Cyclohexyl-(4-{[(2-hydroxycarbamoyl-benzo[b]thiophen-6-ylmethyl)-amino]-methyl}-benzylamino)-acetic acid]"
9,> 7.00,"C[C@H](NCc1ccc(CNCc2ccc3cc(C(=O)NO)sc3c2)cc1)C(=O)O [Compound 119, (S)-2-(4-{[(2-Hydroxycarbamoyl-benzo[b]thiophen-6-ylmethyl)-amino]-methyl}-benzylamino)-propionic acid]"
10,> 7.00,"O=C(O)CNCc1ccc(CNCc2ccc3cc(C(=O)NO)sc3c2)cc1 [Compound 121, (4-{[(2-Hydroxycarbamoyl-benzo[b]thiophen-6-ylmethyl)-amino]-methyl}-benzylamino)-acetic acid]"

# System: Hela cancer cell line
# Test: Cell inhibition assay (SRB cell viability), Hela
# Assay type: cell-based
# Settings: Homo sapiens, HeLa, 72 h, Hela cells, IC50 range
# Experimental: The corresponding cancer cell lines (Hela, U937 and HUT) growing in log phase were harvested and seeded at 1000 cells/well (200 ul final volume) into 96-well tissue culture plates. Following 24 h of cell growth cells were treated with compounds (final concentration of 20 uM). Plates were then re-incubated for a further 72 h before a sulphorhodamine B (SRB) cell viability assay was conducted according to Skehan 1990 J Natl Canc Inst 82, 1107-1112.
# Data were expressed as a percentage inhibition of the control, measured in the absence of inhibitor, as follows:— % inhibition=100−((S^i/S^o)×100) where S^i is the signal in the presence of inhibitor and S^o is the signal in the presence of DMSO. IC50 values were determined by non-linear regression analysis, after fitting the results of eight data points to the equation for sigmoidal dose response with variable slope (% activity against log concentration of compound), using Graphpad Prism software. […] NT=Not tested
row,Compound,pIC50
1,"O=C(CCCCCCC(=O)Nc1cccc(CN[C@@H](Cc2ccccc2)C(=O)O)c1)NO [Compound 27, (S)-2-[3-(7-Hydroxycarbamoyl-heptanoylamino)-benzylamino]-3-phenyl-propionic acid]",< 5.48
2,"O=C(CCCCCCC(=O)Nc1cccc(CN[C@@H](CCc2ccccc2)C(=O)O)c1)NO [Compound 30, (S)-2-[3-(7-Hydroxycarbamoyl-heptanoylamino)-benzylamino]-4-phenyl-butyric acid]",< 5.48
3,"CC(C)(C)OC[C@H](NCc1cccc(NC(=O)CCCCCCC(=O)NO)c1)C(=O)O [Compound 33, (S)-3-tert-Butoxy-2-[3-(7-hydroxycarbamoyl-heptanoylamino)-benzylamino]-propionic acid]",< 5.48
